Laboratory results from patent US8715731B2, “Process of reducing the bitter taste of water soluble actives by co-grinding the active with β cyclodextrin” (ISP Investments Inc., priority 2006, dated 2014).
Values after ≈ are worked out from the molar mass of the structure shown.

Assay: physchem
Conditions: water
Protocol: The degree of formation of an inclusion complex between the drug and β-cyclodextrin was determined quantitatively by Differential Scanning Calorimetry (DSC).

solubility: 1000 µg/mL (≈ 2960 µM)
SMILES: NC(N)=Nc1nc(CSCCC(N)=NS(N)(=O)=O)cs1 [famotidine]
